US20170128557A1, “Dendritic Cell Therapeutic Agent and Immunotherapeutic Agent Comprising Peptide Derived from Telomerase, and Therapeutic Methods Using the Same” (GemVax & KAEL Co., Ltd., priority 2015, published 2017)

Test system: T cells in the peripheral blood
Test: ELISPOT assay (IFN-γ / IL-4) on patients' peripheral blood T cells before/after dendritic cell immunotherapy
Format: cell-based, human
Protocol: As described above, dendritic cells activate CTL to attack target cells to treat a disease. Accordingly, dendritic cells activated by peptides including PEP1 were prepared, administered to each individual, and subjected to an ELISPOT assay to observe an increase in T cell responses to each peptide in each individual.
The experiments were performed on four patients with different diseases (cancers), and a dendritic cell immunotherapy method is as follows. Mononuclear cells were collected from peripheral blood extracted from each patient and cultured. Immature dendritic cells differentiated in the mononuclear cell culture were subjected to antigen activation with tumor-associated antigen peptides including PEP1. When the dendritic cells became mature, antigen activation was carried out once more with the same peptides. The activated mature dendritic cells were separated and then administered to each patient.
More specifically, dendritic cells and NK cells used in treatment were prepared by proliferating mononuclear cells obtained from 25 ml of whole blood taken from a patient every two weeks, and differentiating the proliferated mononuclear cells into dendritic cells. That is, in this example, CD14+ mononuclear cells obtained from a peripheral blood vessel of the patient were cultured with IL-4 and GM-CFS for 6 days and proliferated, and then treated with a Streptococcus agent OK-432 for maturation. In addition, in the preparation of the dendritic cells, the dendritic cells were activated by WT1, MUC1 and other antigens.
According to cancer characteristics of a patient undergoing a gene test, an antigen test and a tumor marker test, a substance having a similar function to a tumor-associated antigen (a cancer cell lysate, tumor-specific protein, or tumor-associated peptide) was added to the dendritic cells to enhance a cancer-recognizing ability of the dendritic cells, which is an activation process. For dendritic cell activation, as tumor-associated antigens that can be used in the present invention but not limited thereto, WT1, MUC-1, CA125, MAGE-A3, CEA, NY-ESO1, survinin, Her2, and the telomerase-derived peptide PEP1 were used. As an activation method but not limited to a specific example, the dendritic cells may be cultured with such a tumor-associated antigen. The activation may be performed on immature dendritic cells or mature dendritic cells. In one specific example of the present invention, mononuclear cells were collected from a patient's peripheral blood and cultured, immature dendritic cells differentiated from the mononuclear cells were treated with a peptide to activate and thus differentiated into mature dendritic cells, and then the mature dendritic cells were treated with the same peptide for activation. An amount of the antigen used in the activation may be the same as generally used in the art as follows but is not limited thereto. For example, PEP1 may be used in an amount of 1 to 1000 μg/ml along with the antigens, and 20 μg/ml of WT1, 20 μg/ml of MUC1, 20 μg/ml of CEA, 500 μg/ml of CA125, and 20 μg/ml of HER2 may be used. The dendritic cells (1×10^7) prepared as described above were intradermally injected six times every 14 days.
The following experiment was performed to examine whether dendritic cell immunotherapy leads to an increase in T cell responses to peptides activated by an antigen. A buffy coat layer was separated from the peripheral blood of a patient subjected to the dendritic cell immunotherapy using a ficoll method (centrifugation using a ficoll), and mononuclear cells were obtained therefrom. Following 3 to 4-day culture, an ELISPOT assay was carried out. The ELISPOT assay was performed according to a protocol of an ImmunoSpot kit (Celluluar Technology Limited, USA). […] As peptide stimulants (antigen peptides), Peptivator WT1, Peptivator NY-ESO1 (Miltenyi Biotec., Germany), MUC-1, MAGE-A3, Survivin and PEP1 were added to each well at an optimum concentration and cultured for 48 hours. […]

Sequence: EARPALLTSRLRFIPK (homo sapiens) [PEP1, telomerase-derived peptide composed of 16 amino acids, position [611-626] on telomerase]
- Number of spots, IL-4 (Patient 1 (stomach cancer), 7 days after six times of dendritic cell vaccine administration, negative control 17): 335
- Number of spots, IFN-γ (Patient 1 (stomach cancer), 7 days after six times of dendritic cell vaccine administration, negative control 27): 567
- Number of spots, IL-4 (Patient 1 (stomach cancer), before dendritic cell vaccine administration, negative control 1): 2
- Number of spots, IFN-γ (Patient 1 (stomach cancer), before dendritic cell vaccine administration, negative control 5): 3
- ELISPOT spots compared with the negative control (Patient 1, after the treatment (dendritic cell vaccine six times)): increased
- Number of spots, IL-4 (Patient 2 (lung cancer), 44 days after six times of dendritic cell vaccine administration, negative control 2): 410
- Number of spots, IFN-γ (Patient 2 (lung cancer), 44 days after six times of dendritic cell vaccine administration, negative control 153, *exact number was not obtained): ~332.5*
- Number of spots, IL-4 (Patient 2 (lung cancer), before dendritic cell vaccine administration, negative control 0): 9
- Number of spots, IFN-γ (Patient 2 (lung cancer), before dendritic cell vaccine administration, negative control 1): 0
- ELISPOT spots compared with the negative control (Patient 2, after the treatment (dendritic cell vaccine 6 times)): increased
- Number of spots, IL-4 (Patient 3 (pancreatic cancer), 11 days after six times of dendritic cell vaccine administration, negative control 2): 434
- Number of spots, IFN-γ (Patient 3 (pancreatic cancer), 11 days after six times of dendritic cell vaccine administration, negative control 14): 632
- Number of spots, IFN-γ (Patient 3 (pancreatic cancer), before dendritic cell vaccine administration, negative control 3): 1
- Number of spots, IL-4 (Patient 3 (pancreatic cancer), before dendritic cell vaccine administration, negative control 8): 4
- ELISPOT spots compared with the negative control (Patient 3, after the treatment (dendritic cell vaccine 6 times)): increased
- Number of spots, IFN-γ (Patient 4 (breast cancer), 35 days after six times of dendritic cell vaccine administration, 2×10^5 cells/well, negative control 12): 258
- Number of spots, IL-4 (Patient 4 (breast cancer), 35 days after six times of dendritic cell vaccine administration, 2×10^5 cells/well, negative control 20): 353
- Number of spots, IFN-γ (Patient 4 (breast cancer), before dendritic cell vaccine administration, 2×10^5 cells/well, negative control 13): 22
- Number of spots, IL-4 (Patient 4 (breast cancer), before dendritic cell vaccine administration, 2×10^5 cells/well, negative control 17): 3
- ELISPOT spots compared with the negative control (Patient 4, after the treatment (dendritic cell vaccine 6 times)): increased
